Several values for one entry are separate records, joined by “and”; a condition that tells them apart may be missing. Equal values may be shown once. Read-outs that look alike come from different tables or passages of the source. Values belong to the compound of their own block, whether it stands above or below them.
Columns and labels:
[1] = test system: AZT-resistant clinical isolates of HIV-1; test: microbe, parasite or virus in culture; type: cell-based; settings: for EC50: mean of 2 to 4 independent tests
Description: (§1) The inhibitory effects of PC lipids, non-PC lipid-AZT conjugates, and double-targeting PC lipid-AZT conjugate compounds of the invention on replication of HIV-1 virus in cells was examined using the plaque assay procedure described in Kucera et al. (1990, AIDS Research and Human Retroviruses, 6:491). CEM-SS cells were seeded at 50,000 cells per milliliter in RPMI growth medium as a monolayer in 96-well dishes, inoculated with 50 to 100 plaque forming units of HIV-1 and overlaid with serial dilutions of either PC lipid, non-PC lipid-AZT conjugate, or PC-lipid-AZT conjugate in RPMI-1640 growth medium supplemented with 10% fetal bovine serum. The structures of the tested compounds are described in Table 1. AZT and PC lipids were used as positive controls. […] The cytotoxicity of PC lipids, non-PC lipid-AZT conjugates and double targeting PC lipid-AZT conjugates was assessed using the procedure described in Kucera et al. (1990, AIDS Res. And Human Retrovir., 6:496, and 1998, Antiviral Chemistry and Chemotherapy, 9:160). [drawing 16]
Evaluation of the clinical isolates to the compounds was performed using the plaque assay procedure described herein in Example 1. The matched pairs of clinical isolates were obtained through the AIDS Research and Reference Reagent Program, NIH, Bethesda, Md.

Friend leukemia virus = settings: INK-11 compared with AZT alone; cited from earlier work
HIV-1 = HIV-1 syncytial plaque assay in CEM-SS cells; type: cell-based
Description: as §1
In the plaque assay, HIV-1 syncytial plaques are seen as large, multicellular foci (10 to 25 nuclei/syncytium) that appear either brown and granular or clear. Because the number of HIV-1 syncytial plaques was correlated with reverse transcriptase (RT) and p24 core antigen activity in the HIV-1 infected cell overlay fluids, the syncytial plaque assay could be used to quantify the amount of infectious virus. Reverse transcriptase activity was assayed according to the procedure described by Poeisz et al. (1980, Proc. Natl. Acad. Sci. U.S.A. 77:7415). The activity of p24 core antigen induced by HIV-1 infection of CEM-SS cells was measured spectrophotometrically using the commercial Coulter enzyme immunoassay (EIA).

[2] = Cytotoxicity (TC50) of the compounds tested for anti-HIV-1 activity; type: cell-based, human; settings: human, CEM-SS cells
Description: as §1

[3] = test system: HIV-1 persistently infected H9IIIB cells; test: Induction of defective HIV-1 in persistently infected H9IIIB cells (RT activity after infecting fresh CEM-SS cells); type: cell-based; settings: RT activity in CEM-SS overlay medium after 7 or 9 days; H9IIIB cells treated with 1.0 μM compound for 14 or 11 days
Description: HIV-1 persistently infected H9IIIB cells were washed twice to remove extracellular HIV-1, resuspended in fresh growth medium with or without 1.0 μM of compound for a total of 14 days. During the treatment period, the cells were subcultured 1:3 three times a week. In addition, on days 3, 7 and 11, the cells were pelleted to remove extracellular HIV-1 before subculture in fresh growth medium with or without the compound. After 14 or 11 days of treatment, the virus was pelleted (100,000×g, 1 hr, 4 C.) from the overlay medium to remove free compound, resuspended in fresh medium without compound and assayed for RT activity. The virus suspension was normalized to 500,000 RT DPM and used to infect fresh CEM-SS cells. The infected CEM-SS cells were incubated for a total of 7 or 9 days, and the overlay medium was harvested and assayed for induction of RT activity. The % inhibition of RT activity was used as a measure of defective virus formation during the treatment period.

[4] = Oral administration of phospholipid-AZT conjugate in rodents (distribution, half-life); parameters: species or system rodents (mice); settings: mouse, in vivo; in rodents; units given within the value; read-out: half-life of AZT alone
[5] = Cytotoxicity in Vero cell monolayers (cell morphology); type: cell-based, monkey; settings: monkey, Vero cell monolayers (monkey kidney cells), 48 hours at 37° C., lowest concentration changing morphology in at least 25% of the cells, read-out: Cytotoxicity (TC50)
Description: To measure cytotoxicity of the compounds, the cell monolayers (described above) were treated with a serial concentration of test compound for 48 hours at 37° C. and visually examined after crystal violet staining by light microscopy for changes in cell morphology (cell rounding, shrinking, detachment) compared to an untreated control culture.

[6] = test system: herpes simplex virus type 2; test: Herpes simplex virus type 2 plaque inhibition in Vero cells; type: cell-based; settings: acyclovir in replicate tests; read-out: EC50 against herpes simplex virus type 2
Description: Proof-of-concept of the antiviral activity of the double-targeting PC lipid-AZT conjugate compounds of the invention with respect to herpes simplex virus type 2 was evaluated and compared with that of PC lipid alone and with acyclovir (positive controls). Serial dilutions of PC lipid, PC lipid-AZT conjugate compound, or acyclovir were evaluated for inhibition of the formation of herpes simplex virus type 2 plaques in Vero cells and EC50 values were calculated from the results obtained. Briefly, the tests for anti-herpes simplex virus (HSV) activity and cytotoxicity of the compounds were performed by seeding 8×10^4 monkey kidney cells (Vero) per ml of D-MEM with 10% fetal bovine serum (FBS) in each well of a 12-well dish. The cultures were incubated at 37° C. to form a complete monolayer. To measure anti-HSV activity and effective concentration50 (EC50) each cell monolayer was infected with HSV diluted in PBS-A containing about 100 plaque forming units (PFU) per 0.1 ml. After virus attachment (1 hr., 37° C.) the infected monolayers were overlaid with E-MEM containing 2% FBS and 0.5% methyl cellulose with or without added serial concentrations of test compound. […] The EC50 values were calculated using a computer generated program.

SMILES: Cc1cn([C@H]2C[C@H](N=[N+]=[N-])[C@@H](CO)O2)c(=O)[nH]c1=O [AZT, 3′-azido-3′-deoxythymidine, reference compound]
EC50 ([1]; Human immunodeficiency virus 1, read-out: EC50 Pre-AZT G-762, pre-AZT isolate, patient code G-762): 0.001 µM | EC50 ([1]; Human immunodeficiency virus 1, read-out: EC50 Pre-AZT H112-2, pre-AZT isolate, patient code H112-2): 0.002 µM | Fold-Increase (G-762 to G-691) ([1]; post-AZT G-691 versus pre-AZT G-762): 165 | fold increase in AZT-resistance among HIV-1 clinical isolates ([1]; text summary over both isolate pairs): 680- to 1,100 fold | suppression against RT activity (Friend leukemia virus): 98% | Differential Selectivity (HIV-1; DS = ratio of TC50 for cytotoxicity to EC50 for anti-HIV activity): 411 | EC50 (HIV-1; Human immunodeficiency virus 1, CEM-SS, 120 h, read-out: Anti-HIV-1 Activity (EC50)): 0.009 µM | CC50 [2]: 3.7 µM | DPM-Bkg [3]: 5416 DPM and 6573 DPM | half-life [4]: 30 to 60 min

EC50 [6]: 12.5 µM and 14.5 µM and 6.67 µM
SMILES: Nc1nc2c(ncn2COCCO)c(=O)[nH]1 [Acyclovir, reference compound]
CC50 at 48 h [5]: > 20 µM

— patent US7026469B2, “Compositions and methods of double-targeting virus infections and cancer cells” (Wake Forest University School of Medicine, priority 2000, dated 2006)
